Source: the supplement of paper PMC10307832

Each cell line was assayed with O=C(/C=C/c1cccnc1)NCCCCC1CCN(C(=O)c2ccccc2)CC1 [Daporinad] + CS(=O)(=O)CCNCc1ccc(-c2ccc3ncnc(Nc4ccc(OCc5cccc(F)c5)c(Cl)c4)c3c2)o1 [Lapatinib] (partner 2 µM) (assay: relative viability (nuclei count vs DMSO), 5 days (fraction); higher = more cells survive). Details: first compound 0.0005 µM.
In short: (§1)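 Lung cancer cell lines were pin-tool dosed in 1536-well plates on the day after seeding, with either a lone drug or a fixed anchor-drug dose plus five library-drug doses (not always all listed) in √10 steps. Nuclei were counted on 4× images after 5 days. Relative viability is the ratio of treated-well to vehicle-well nuclei counts, with each value a median of duplicate plates.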

| Cell Line | relative viability |
| --- | --- |
| HCC-366 | 1.06 |
| NCI-H1666 | 0.612 |
| NCI-H647 | 1.13 |
| LK-2 | 0.877 |
| NCI-H2087 | 0.99 |
| NCI-H358 | 0.359 |
| NCI-H2170 | 0.285 |
| H3255 | 0.24 |
| COR-L23 | 0.969 |
| COR-L 105 | 0.371 |
| IA-LM | 1.02 |
| LOU-NH91 | 0.767 |
| NCI-H1793 | 0.337 |
| NCI-H2405 | 1.1 |
| HCC-44 | 1.06 |
| A549 | 0.973 |
| SK-MES-1 | 0.464 |

| Cell Line | relative viability |
| --- | --- |
| LU99A | 0.839 |
| BEN | 0.646 |
| HARA | 0.758 |
| HCC-78 | 0.749 |
| NCI-H322M | 0.648 |
| LCLC-97TM1 | 0.813 |
| NCI-H2009 | 1.3 |
| A-427 | 1.05 |
| NCI-H460 | 0.797 |
| NCI-H727 | 0.968 |
| NCI-H1734 | 1.05 |
| NCI-H520 | 0.976 |
| NCI-H2347 | 1.14 |
| SW 1573 | 1.12 |
| NCI-H1395 | 0.885 |
| 201T | 0.957 |
| NCI-H1915 | 0.983 |

Same assay, conditions: first compound 0.001581 µM

| Cell Line | relative viability |
| --- | --- |
| HCC-366 | 1.02 |
| NCI-H1666 | 0.633 |
| NCI-H647 | 1.34 |
| LK-2 | 0.967 |
| NCI-H2087 | 0.979 |
| NCI-H358 | 0.634 |
| NCI-H2170 | 0.263 |
| H3255 | 0.255 |
| COR-L23 | 0.993 |
| COR-L 105 | 0.371 |
| IA-LM | 0.771 |
| LOU-NH91 | 0.788 |
| NCI-H1793 | 0.935 |
| NCI-H2405 | 1.25 |
| HOP-62 | 1.13 |
| HCC-44 | 1.08 |
| A549 | 1.05 |
| SK-MES-1 | 0.484 |

| Cell Line | relative viability |
| --- | --- |
| LU99A | 1.14 |
| BEN | 0.688 |
| HARA | 1.05 |
| HCC-78 | 0.705 |
| NCI-H322M | 0.671 |
| LCLC-97TM1 | 0.795 |
| NCI-H2009 | 1.02 |
| A-427 | 1.12 |
| NCI-H460 | 1.15 |
| NCI-H727 | 0.831 |
| NCI-H1734 | 1.08 |
| NCI-H520 | 0.54 |
| NCI-H2347 | 0.781 |
| SW 1573 | 0.322 |
| NCI-H1395 | 1.12 |
| 201T | 1.05 |
| NCI-H1915 | 1.03 |

Same assay, conditions: first compound 0.005 µM

| Cell Line | relative viability |
| --- | --- |
| HCC-366 | 1.08 |
| NCI-H1666 | 0.739 |
| NCI-H647 | 1.19 |
| LK-2 | 0.546 |
| NCI-H2087 | 1.18 |
| NCI-H358 | 0.533 |
| NCI-H2170 | 0.274 |
| H3255 | 0.247 |
| COR-L23 | 0.92 |
| COR-L 105 | 0.385 |
| IA-LM | 0.664 |
| LOU-NH91 | 0.932 |
| NCI-H1793 | 0.535 |
| NCI-H2405 | 1.12 |
| HOP-62 | 1.04 |
| HCC-44 | 1.07 |
| A549 | 0.938 |
| SK-MES-1 | 0.51 |

| Cell Line | relative viability |
| --- | --- |
| LU99A | 0.98 |
| BEN | 0.858 |
| HARA | 0.745 |
| HCC-78 | 0.854 |
| NCI-H322M | 0.584 |
| LCLC-97TM1 | 1.2 |
| NCI-H2009 | 1.07 |
| A-427 | 0.962 |
| NCI-H460 | 1.08 |
| NCI-H727 | 0.853 |
| NCI-H1734 | 0.986 |
| NCI-H520 | 0.224 |
| NCI-H2347 | 1.06 |
| SW 1573 | 1.2 |
| NCI-H1395 | 0.977 |
| 201T | 1.02 |
| NCI-H1915 | 1.03 |

Same assay, conditions: first compound 0.01581 µM

| Cell Line | relative viability |
| --- | --- |
| HCC-366 | 1.02 |
| NCI-H1666 | 0.752 |
| NCI-H647 | 1.01 |
| LK-2 | 0.324 |
| NCI-H2087 | 1.14 |
| NCI-H358 | 0.451 |
| NCI-H2170 | 0.276 |
| H3255 | 0.235 |
| COR-L23 | 0.403 |
| COR-L 105 | 0.442 |
| IA-LM | 0.876 |
| LOU-NH91 | 0.952 |
| NCI-H1793 | 0.805 |
| NCI-H2405 | 0.444 |
| HOP-62 | 0.505 |
| HCC-44 | 0.937 |
| A549 | 0.607 |
| SK-MES-1 | 0.471 |

| Cell Line | relative viability |
| --- | --- |
| LU99A | 1.17 |
| BEN | 1.11 |
| HARA | 0.547 |
| HCC-78 | 1.18 |
| NCI-H322M | 0.597 |
| LCLC-97TM1 | 0.797 |
| NCI-H2009 | 0.9 |
| A-427 | 0.863 |
| NCI-H460 | 1.04 |
| NCI-H727 | 0.76 |
| NCI-H1734 | 0.65 |
| NCI-H520 | 0.149 |
| NCI-H2347 | 1.05 |
| SW 1573 | 0.833 |
| NCI-H1395 | 1.23 |
| 201T | 1.04 |
| NCI-H1915 | 0.969 |

These cell lines were tested with COc1cc(Nc2ncc(F)c(Nc3ccc4c(n3)NC(=O)C(C)(C)O4)n2)cc(OC)c1OC [R406] + CS(=O)(=O)N1CCN(Cc2cc3nc(-c4cccc5[nH]ncc45)nc(N4CCOCC4)c3s2)CC1 [Pictilisib] (partner 1 µM) in the same assay as above. Details: first compound 0.08 µM.
In short: as §1

| Cell Line | relative viability |
| --- | --- |
| HCC-366 | 0.128 |
| NCI-H1666 | 0.431 |
| NCI-H647 | 0.437 |
| LK-2 | 0.462 |
| NCI-H2087 | 0.876 |
| NCI-H358 | 0.336 |
| NCI-H2170 | 0.307 |
| H3255 | 0.48 |
| COR-L23 | 0.755 |
| COR-L 105 | 0.453 |
| IA-LM | 0.443 |
| LOU-NH91 | 0.524 |
| NCI-H1793 | 0.367 |
| NCI-H2405 | 0.514 |
| HOP-62 | 0.643 |
| HCC-44 | 0.569 |
| A549 | 0.519 |
| SK-MES-1 | 0.34 |
